The target in one test is T1, p53-MDM2 interaction (Homo sapiens, UniProt Q00987).
T1 construct: made in house; host or cells: MDM2-GST: Escherichia coli BL21 (DE3), crude extract; p53-His: HEK293T cells transfected with pEnter-p53, crude lysate
The experiment in a line: AlphaLISA inhibitor screening assay, p53-MDM2 (cellular extracts with p53-His and MDM2-GST). The conditions noted are these: 33.3 μg/well MDM2-GST extract, Fig. 4; for concentration above which the AlphaLISA signal reached a plateau: dose-response, 1:10 serial dilutions. The format is biochemical.

Another test concerns the target MDM2. Set-up: method as in PMID 27764791. The conditions noted are these: read-out: Ki, MDM2 antagonist; cited from earlier work.
Another test relates to p53/MDM2 interaction. The conditions noted are these: cited from earlier work.

Like-named read-outs stand apart in the source and are kept apart here.

T1 sequence (Q00987 whole entry): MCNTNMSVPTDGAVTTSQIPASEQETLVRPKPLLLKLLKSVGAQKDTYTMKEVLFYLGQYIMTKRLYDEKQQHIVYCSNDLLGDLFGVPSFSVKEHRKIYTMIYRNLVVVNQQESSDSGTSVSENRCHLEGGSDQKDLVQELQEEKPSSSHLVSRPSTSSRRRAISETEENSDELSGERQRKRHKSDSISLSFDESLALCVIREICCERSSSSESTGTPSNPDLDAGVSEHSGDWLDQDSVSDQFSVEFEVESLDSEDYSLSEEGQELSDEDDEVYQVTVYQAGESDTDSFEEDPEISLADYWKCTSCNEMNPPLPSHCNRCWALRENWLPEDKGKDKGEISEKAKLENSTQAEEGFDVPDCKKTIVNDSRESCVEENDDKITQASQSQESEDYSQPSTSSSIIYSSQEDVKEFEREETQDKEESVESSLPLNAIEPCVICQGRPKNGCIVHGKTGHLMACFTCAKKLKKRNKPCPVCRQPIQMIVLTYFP

In the case of `CCOc1cc(C(C)(C)C)ccc1C1=N[C@@](C)(c2ccc(Cl)cc2)[C@@](C)(c2ccc(Cl)cc2)N1C(=O)N1CCN(CCCS(C)(=O)=O)CC1` [RG-7112], the “concentration above which the AlphaLISA signal reached a plateau” value on p53-MDM2 interaction is reported as “exceeded 1 μΜ”.

The term Ki denotes a dissociation constant, usually derived from enzyme kinetics or from competition with a known ligand. With `CC(C)(C)C[C@@H]1N[C@@H](C(=O)N[C@H]2CC[C@H](O)CC2)[C@H](c2cccc(Cl)c2F)[C@]12C(=O)Nc1cc(Cl)ccc12` [MI-773], the “concentration above which the AlphaLISA signal reached a plateau” value at p53-MDM2 interaction is recorded as “exceeded 1 μΜ”. The Ki at MDM2 is 0.88 nM. Consider `COc1cc(C(=O)O)ccc1NC(=O)[C@@H]1N[C@@H](CC(C)(C)C)[C@](C#N)(c2ccc(Cl)cc2F)[C@H]1c1cccc(Cl)c1F` [Idasanutlin], for which the “course of AlphaLISA response signal with increasing inhibitor dose” value on p53-MDM2 interaction (serial dilutions starting with 20 μM) was “continued to rise rapidly”. Besides, the IC50 with p53/MDM2 interaction (read-out: IC50, p53-MDM2 inhibitor) is 6 nM. As to `COc1ccc(C2=N[C@@H](c3ccc(Cl)cc3)[C@@H](c3ccc(Cl)cc3)N2C(=O)N2CCNC(=O)C2)c(OC(C)C)c1` [Nutlin-3a], in the test on p53/MDM2 interaction (cell-free assay, read-out: IC50, inhibition of the p53/MDM2 interaction), the IC50 was […].

The record behind these values is PMC5569017, “Development of a novel immunoassay to detect interactions with the transactivation domain of p53: application to screening of new drugs” (Scientific Reports, 2017).
